According to PMC9014859 (Journal of Medicinal Chemistry, 2022):
“Also recorded” adds a separate entry of the source.

Key:
[1] = system: CYP1A2, 2B6, 2C8, 2C9, 2C19, 2D6, 3A4 (value spans the isoforms); assay: in vitro; conditions: human
[2] = system: Rat small mesenteric artery
[3] = molecular target: T1, NPR-C extracellular domains (Homo sapiens, UniProt P17342); assay: Fluorescence polarization; format: binding; conditions: competition against fluorescent P19 probe
T1 sequence (P17342 27-481): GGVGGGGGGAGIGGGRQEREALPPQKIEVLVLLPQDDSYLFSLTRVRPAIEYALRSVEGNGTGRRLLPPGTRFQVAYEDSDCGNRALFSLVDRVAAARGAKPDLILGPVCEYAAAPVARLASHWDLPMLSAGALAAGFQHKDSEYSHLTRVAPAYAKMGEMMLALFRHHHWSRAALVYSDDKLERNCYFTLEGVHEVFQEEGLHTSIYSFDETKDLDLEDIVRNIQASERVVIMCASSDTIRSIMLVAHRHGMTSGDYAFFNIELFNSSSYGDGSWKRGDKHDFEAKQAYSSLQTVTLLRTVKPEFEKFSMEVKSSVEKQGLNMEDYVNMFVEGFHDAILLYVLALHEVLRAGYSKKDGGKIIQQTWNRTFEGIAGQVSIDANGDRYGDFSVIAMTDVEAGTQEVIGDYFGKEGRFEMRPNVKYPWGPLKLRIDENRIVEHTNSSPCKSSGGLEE

[4] = system: Mouse small mesenteric artery (NPR-C KO)
[5] = molecular target: T2, Human NPR-C in HeLa cells (Homo sapiens, UniProt P17342); assay: Inhibition of forskolin-induced cAMP production in HeLa cells; conditions: 100 μM compound, forskolin 10 μM
T2 sequence (P17342 27-541): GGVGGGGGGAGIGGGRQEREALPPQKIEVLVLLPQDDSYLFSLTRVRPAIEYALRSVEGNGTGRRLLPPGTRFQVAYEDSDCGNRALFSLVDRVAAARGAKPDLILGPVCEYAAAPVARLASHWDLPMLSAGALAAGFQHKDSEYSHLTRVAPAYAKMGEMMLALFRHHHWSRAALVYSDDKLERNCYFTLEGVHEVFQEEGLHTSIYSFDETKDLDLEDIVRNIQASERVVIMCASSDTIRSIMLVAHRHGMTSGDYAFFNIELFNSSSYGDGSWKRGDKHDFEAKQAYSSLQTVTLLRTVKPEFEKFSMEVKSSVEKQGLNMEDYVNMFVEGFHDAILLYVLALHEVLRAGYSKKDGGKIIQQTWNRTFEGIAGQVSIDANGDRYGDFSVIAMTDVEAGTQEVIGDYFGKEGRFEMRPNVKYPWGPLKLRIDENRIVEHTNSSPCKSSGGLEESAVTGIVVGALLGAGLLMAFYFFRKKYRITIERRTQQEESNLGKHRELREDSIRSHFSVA

in vitro [6] = conditions: PAMPA, pH 7.4, PAMPA Papp (cm/S × 10^–6)
[7] = system: CYP isoforms 1A2, 2B6, 2C8, 2C9, 2C19, 2D6, 3A4; assay: in vitro; conditions: human
in vitro [8] = conditions: plasma
physchem = conditions: solubility (mg/mL), PBS, 5% DMSO, room temperature, 3 h
in vitro [9] = conditions: male, Sprague-Dawley, rat, hepatocytes
[10] = molecular target: T3, Human FL NPR-C (27–541)-10His-Flag (Homo sapiens, UniProt P17342); assay: Surface plasmon resonance; conditions: SPR, affinity model, 1:1 binding; for Kd: KD (μM)
T3 sequence (P17342 27-541): T2 sequence (P17342 27-541)

[11] = pH 7.4

CC(=O)Nc1ccc(Nc2ncnc(NCCC(=O)OC(C)(C)C)n2)cc1 [Compound 1, tert-Butyl 3-((4-((4-Acetamidophenyl)amino)-1,3,5-triazin-2-yl)amino)propanoate]
EC50 [1]: > 50 µM | reduction in potency (EC50 value) when treated with M372049 ([2]; rat SMA): 10 fold | reduction in potency (EC50 value) when treated with osteocrin ([2]; rat SMA): 2.5 fold | FP EC50 (μM) [3]: Low % binding | reduction in potency in NPR-C KO tissue ([4]; mouse SMA, KO vs wild-type): 6.4 fold

COC(=O)[C@H](CC(C)C)Nc1nc(Cl)nc(N[C@H]2CC[C@H](Nc3nc(Cl)nc(N[C@@H](CC(C)C)C(=O)OC)n3)CC2)n1 [Compound 17, Dimethyl 2,2′-(((((1r,4r)-Cyclohexane-1,4-diyl)bis(azanediyl))bis(6-chloro-1,3,5-triazine-4,2-diyl))bis(azanediyl))bis(4-methylpentanoate)]
inhibition of cAMP formation [5]: inhibition trend that did not reach statistical significance | Papp (in vitro [6]): < 1 ×10⁻⁶ cm/s | Papp (in vitro [6]; pH 7.4, 5 h, room temperature): < 0.023 ×10⁻⁶ cm/s | EC50 [7]: 4.96 to 37.8 µM | Rat small mesenteric artery EC50+NPR-C inhibitor (M372049) ± SEM (μM) ([2]; vasorelaxation, with M372049 (10 μM)): maintained their activity | fraction unbound (in vitro [8]; Sprague-Dawley, human and rat): < 0.005 | solubility (physchem): > 70 µg/mL | hepatocyte CLint (in vitro [9]): < 6.4 µL/min/1e6 cells | half-life (in vitro [9]; hepatocyte (rat) T1/2 (min), 1 μM test compound): > 3.33 h | Mouse small mesenteric artery NPR-C KO EC50 ± SEM (μM) ([4]; vasorelaxation, NPR-C knockout): maintained their activity

CC(C)C[C@H](Nc1nc(Cl)nc(Nc2ccc(NC(=O)c3ccccc3)cc2)n1)C(=O)OC(C)(C)C [Compound 22, tert-Butyl (4-((4-Benzamidophenyl)amino)-6-chloro-1,3,5-triazin-2-yl)-L-leucinate]
KD (μM) [10]: poor binding profile; also recorded: Rmax>>theoretical

CC(=O)Nc1ccc(Nc2ncnc(N[C@@H](CC(C)C)C(=O)OC(C)(C)C)n2)cc1 [Compound 26, tert-Butyl (4-((4-Acetamidophenyl)amino)-1,3,5-triazin-2-yl)-L-leucinate]
inhibition of cAMP formation [5]: inhibition trend that did not reach statistical significance | FP EC50 (μM) [3]: Inactive

CC(=O)Nc1ccc(Nc2ncnc(N[C@@H](CC(C)C)C(=O)O)n2)cc1 [Compound 27, (4-((4-Acetamidophenyl)amino)-1,3,5-triazin-2-yl)-L-leucine]
EC50 [1]: > 50 µM | fraction unbound (in vitro [8]): 0.15 | solubility (physchem): > 70 µg/mL

CON(C)C(=O)[C@H](CC(C)C)Nc1ncnc(Nc2ccc(NC(C)=O)cc2)n1 [Compound 32, (S)-2-((4-((4-Acetamidophenyl)amino)-1,3,5-triazin-2-yl)amino)-N-methoxy-N,4-dimethylpentanamide]
Kd [10]: 144 ± 7.7 µM

CC(=O)Nc1ccc(Nc2ncnc(N[C@H](CC(C)C)C(=O)OC(C)(C)C)n2)cc1 [Compound 34, tert-Butyl (4-((4-Acetamidophenyl)amino)-1,3,5-triazin-2-yl)-D-leucinate]
KD (μM) [10]: failing to pass the preliminary binding screen

CC(=O)Nc1ccc(Nc2ncnc(NCC(=O)OC(C)(C)C)n2)cc1 [Compound 36, tert-Butyl (4-((4-Acetamidophenyl)amino)-1,3,5-triazin-2-yl)glycinate]
PAMPA Papp (cm/S × 10^–6) [11]: < 1

CC(=O)Nc1ccc(Nc2ncnc(NC(C)(C)C(=O)OC(C)(C)C)n2)cc1 [Compound 38, tert-Butyl 2-((4-((4-Acetamidophenyl)amino)-1,3,5-triazin-2-yl)amino)-2-methylpropanoate]
KD (μM) [10]: did not meet the minimum binding threshold

CC(=O)Nc1ccc(Nc2ncnc(N[C@@H](C)C(=O)OC(C)(C)C)n2)cc1 [Compound 39, tert-Butyl (4-((4-Acetamidophenyl)amino)-1,3,5-triazin-2-yl)-L-alaninate]
KD (μM) [10]: did not meet the minimum binding threshold

CC(=O)Nc1ccc(Nc2ncnc(N[C@@H](Cc3ccc(O)cc3)C(=O)OC(C)(C)C)n2)cc1 [Compound 42, tert-Butyl (4-((4-Acetamidophenyl)amino)-1,3,5-triazin-2-yl)-L-tyrosinate]
KD (μM) [10]: did not meet the minimum binding threshold

CC(=O)Nc1ccc(Nc2ncnc(N[C@H](CC(=O)OC(C)(C)C)Cc3ccccc3)n2)cc1 [Compound 44, tert-Butyl (S)-3-((4-((4-Acetamidophenyl)amino)-1,3,5-triazin-2-yl)amino)-4-phenylbutanoate]
Kd [10]: 29.6 ± 4.5 µM | FP EC50 (μM) [3]: Inactive
